Here are results for ten compounds from US9796720B2, “Imidazole-derived modulators of the glucocorticoid receptor” (BRISTOL-MYERS SQUIBB COMPANY, priority 2013, dated 2017).

One test has as its system AP-1. Nature of the test: Cellular transrepressional assay (AP-1 luciferase reporter in A549 cells, PMA-activated). In kind it is cell-based. To be noted: for EC50: read-out: AP-1 (EC50, nM) (measured in cellular transrepression assay); for Emax: read-out: AP-1 Max % inhibition (measured in cellular transrepression assay). As to the method: Cellular Transrepressional Assay
To measure the ability of test molecules to inhibit AP-1 induced transcriptional activity we utilized an A549 cell which was stably transfected with a plasmid containing 7×AP-1 DNA binding sites (pAP-1-Luc plasmid, Stratagene Co. La Jolla, Calif.) followed by the gene for luciferase. Cells were activated with 10 ng/ml of phorbol myristic acid (PMA) plus or minus test molecules for 7 hours. After 7 hours a luciferase reagent was added to measure luciferase enzymatic activity in the cell. After a 10 minute incubation of luciferase reagent with cells, luminescence was measured in a TOPCOUNT® luminescence counter. Repression of AP-1 activity was calculated as the percentage decrease in the signal induced by PMA alone. Test molecules were analyzed in the concentration range from 0.1 nM to 40 μM. EC50s were determined by using standard curve fitting methods such as Excel fit (Microsoft Co.). An EC50 is the test molecule concentration at which there is a 50% repression of the maximal inhibition of transcription, i.e., a 50% reduction of AP-1 activity.

For test [1], the target named is human full-length glucocorticoid receptor (Homo sapiens (Human), UniProt P04150). Briefly: Glucocorticoid Receptor Binding Assay (II), fluorescence polarization competitor assay. To be noted: recombinant human full-length GR cell lysate, Fluormone GS1; read-out: GR (Ki, nM) (measured in GR binding Assay II). The protocol: Glucocorticoid Receptor Binding Assay (II)
Sequence of human full-length glucocorticoid receptor (P04150 whole entry): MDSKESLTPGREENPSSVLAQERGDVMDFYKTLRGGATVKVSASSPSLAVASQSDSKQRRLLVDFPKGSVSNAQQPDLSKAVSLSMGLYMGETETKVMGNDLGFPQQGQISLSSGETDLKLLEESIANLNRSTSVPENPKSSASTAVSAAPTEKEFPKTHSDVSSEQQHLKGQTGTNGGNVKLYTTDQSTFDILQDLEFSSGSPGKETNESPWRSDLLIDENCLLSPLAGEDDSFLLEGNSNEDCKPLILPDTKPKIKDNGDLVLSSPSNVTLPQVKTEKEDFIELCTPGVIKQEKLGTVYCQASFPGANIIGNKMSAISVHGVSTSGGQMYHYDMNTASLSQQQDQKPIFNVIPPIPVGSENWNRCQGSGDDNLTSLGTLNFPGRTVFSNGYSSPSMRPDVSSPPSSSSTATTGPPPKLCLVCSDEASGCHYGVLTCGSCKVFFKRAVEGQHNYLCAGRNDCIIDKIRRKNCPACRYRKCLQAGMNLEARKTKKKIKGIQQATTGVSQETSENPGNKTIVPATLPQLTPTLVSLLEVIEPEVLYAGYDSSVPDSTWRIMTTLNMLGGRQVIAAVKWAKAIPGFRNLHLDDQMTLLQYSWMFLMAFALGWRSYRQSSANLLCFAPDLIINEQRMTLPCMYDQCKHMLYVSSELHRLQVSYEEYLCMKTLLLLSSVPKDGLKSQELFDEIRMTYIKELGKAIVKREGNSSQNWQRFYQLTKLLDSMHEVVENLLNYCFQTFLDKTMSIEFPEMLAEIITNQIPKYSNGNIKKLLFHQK
In order to measure the binding of compounds on the glucocorticoid receptor a commercially available kit was used (Glucocorticoid receptor competitor assay kit, PanVera Co., Madison, Wis., P2816). Briefly, a cell lysate containing recombinantly expressed human full-length glucocorticoid receptor was mixed with a fluorescently labeled glucocorticoid (1 nM Fluormone GS1) in the presence or absence of test compound. After one hour at room temperature, the fluorescence polarization (FP) of the samples were measured.

[2] abbreviates: A549 cells, 7xAP-1 luciferase, PMA 10 ng/ml, 7 hours.

SMILES strings stand for the structures. Where two headings read alike, the source gives them in different places.

As for `CC(C)(c1nc2nccnc2[nH]1)[C@@H]1c2ccc(-c3ccc(N)cc3)nc2Oc2c(F)cccc21` [Example 22, (S)-4-(5-(2-(1H-Imidazo[4,5-b]pyrazin-2-yl)propan-2-yl)-9-fluoro-5H-chromeno[2,3-b]pyridin-2-yl)aniline], in the test with AP-1 (setting [2]), the EC50 was 19.9 nM and the Emax came out at 51%. Moreover, the inhibition constant Ki in test [1] came to 2.91 nM.

With `CC(C)(c1nc2nccnc2[nH]1)[C@@H]1c2ccc(-c3ccc(NS(C)(=O)=O)cc3)nc2Oc2c(F)cccc21` [Example 23, (S)-N-(4-(5-(2-(1H-Imidazo[4,5-b]pyrazin-2-yl)propan-2-yl)-9-fluoro-5H-chromeno[2,3-b]pyridin-2-yl)phenyl)methanesulfonamide], in the test on AP-1 (7 h), the EC50 stood at 22.8 nM and the Emax stood at 58.2%. The inhibitory constant (Ki) in test [1] came to 1.76 nM.

Turning to `CC(C)(c1nc2nccnc2[nH]1)[C@@H]1c2ccc(-c3ccc(N4CCCC4=O)cc3)nc2Oc2c(F)cccc21` [Example 24, (S)-1-(4-(5-(2-(1H-Imidazo[4,5-b]pyrazin-2-yl)propan-2-yl)-9-fluoro-5H-chromeno[2,3-b]pyridin-2-yl)phenyl)pyrrolidin-2-one], in the test on AP-1 (setting [2]), the half-maximal effective concentration (EC50) worked out at 37.3 nM and the Emax was 69.4%. Also, the Ki in test [1] was 1.9 nM.

Consider `CC(C)Oc1ccc(-c2ccc3c(n2)Oc2c(F)cccc2[C@@H]3C(C)(C)c2nc3nccnc3[nH]2)cn1` [Example 25, (S)-5-(2-(1H-Imidazo[4,5-b]pyrazin-2-yl)propan-2-yl)-9-fluoro-2-(6-isopropoxypyridin-3-yl)-5H-chromeno[2,3-b]pyridine], for which, in the test with AP-1 (setting [2]), the EC50 amounted to 31.7 nM and the Emax was 57.8%. Moreover, in test [1], the Ki turned out to be 2.78 nM.

As to `COC(=O)c1ccc(-c2ccc3c(n2)Oc2c(F)cccc2[C@@H]3C(C)(C)c2nc3nccnc3[nH]2)cn1` [Example 26, (S)-Methyl 5-(5-(2-(1H-imidazo[4,5-b]pyrazin-2-yl)propan-2-yl)-9-fluoro-5H-chromeno[2,3-b]pyridin-2-yl)picolinate], in the test on AP-1 (setting [2]), the half-maximal effective concentration (EC50) was 5000 nM and the Emax was found to be 14.3%. In test [1], the Ki stood at 144 nM.

On to `CC(C)(O)c1ccc(-c2ccc3c(n2)Oc2c(F)cccc2[C@@H]3C(C)(C)c2nc3nccnc3[nH]2)cn1` [Example 27, (S)-2-(5-(5-(2-(1H-Imidazo[4,5-b]pyrazin-2-yl)propan-2-yl)-9-fluoro-5H-chromeno[2,3-b]pyridin-2-yl)pyridin-2-yl)propan-2-ol], for which, in the test on AP-1 (setting [2]), the concentration giving a half-maximal response (EC50) was determined as 28.4 nM and the Emax worked out at 53.6%. Moreover, the inhibition constant Ki in test [1] was determined as 9.3 nM.

With `CC(C)(c1nc2nccnc2[nH]1)[C@@H]1c2ccc(-c3ccc(F)nc3)nc2Oc2c(F)cccc21` [Example 28, (S)-5-(2-(1H-Imidazo[4,5-b]pyrazin-2-yl)propan-2-yl)-9-fluoro-2-(6-fluoropyridin-3-yl)-5H-chromeno[2,3-b]pyridine], in the test on AP-1 (setting [2]), the EC50 came to 5000 nM and the Emax turned out to be 16.4%. Further, the inhibition constant Ki in test [1] is 28.6 nM.

Take `CN(C)c1ccc(-c2ccc3c(n2)Oc2c(F)cccc2[C@@H]3C(C)(C)c2nc3nccnc3[nH]2)cn1` [Example 29, (S)-5-(5-(2-(1H-Imidazo[4,5-b]pyrazin-2-yl)propan-2-yl)-9-fluoro-5H-chromeno[2,3-b]pyridin-2-yl)-N,N-dimethylpyridin-2-amine]: in the test with AP-1 (setting [2]), the 50% effective concentration (EC50) amounted to 129 nM and the Emax amounted to 44.9%. Further, the Ki in test [1] is 5.43 nM.

On to `CC(C)(c1nc2nccnc2[nH]1)[C@@H]1c2ccc(-c3ccc(C(=O)N4CCOCC4)nc3)nc2Oc2c(F)cccc21` [Example 30, (S)-(5-(5-(2-(1H-Imidazo[4,5-b]pyrazin-2-yl)propan-2-yl)-9-fluoro-5H-chromeno[2,3-b]pyridin-2-yl)pyridin-2-yl)(morpholino)methanone], for which, in the test with AP-1 (setting [2]), the EC50 was 179 nM and the Emax amounted to 57%. Also, the inhibition constant (Ki) in test [1] was found to be 30.3 nM.

Turning to `Cn1nnnc1-c1ccc(-c2ccc3c(n2)Oc2c(F)cccc2[C@@H]3C(C)(C)c2nc3nccnc3[nH]2)cc1` [Example 31, (S)-5-(2-(1H-Imidazo[4,5-b]pyrazin-2-yl)propan-2-yl)-9-fluoro-2-(4-(1-methyl-1H-tetrazol-5-yl)phenyl)-5H-chromeno[2,3-b]pyridine], in the test with AP-1 (setting [2]), the 50% effective concentration (EC50) worked out at 15 nM and the Emax amounted to 48.6%. Also, in test [1], the inhibition constant Ki amounted to 1.94 nM.
